According to patent publication US12692261B2, “Substituted heterocyclic compounds and therapeutic uses thereof” (Bayer Aktiengesellschaft, priority 2020, dated 2026):
Where “and” joins values, the source holds several entries; their conditions need not be identical. Identical values can stand only once. Like-named read-outs stand apart in the source and are kept apart here.

Legend:
[1] = molecular target: T1, full-length human CSNK1A1 (Homo sapiens, UniProt P48729); assay: CSNK1A1 Assay 2 (ADP-Glo, 1 μM ATP, substrate biotin-Ahx-KRRRAL-pS-VASLPGL); format: biochemical; conditions: Table 3, read-out: CSNK1A1 Assay 2 IC50 [mol/l] (median)
T1 construct: N-terminal Glutathion-S-Transferase (GST) and full-length human CSNK1A1; purchased Life Technologies PV4174; host or cells: baculovirus infected insect cells
T1 sequence (P48729 whole entry): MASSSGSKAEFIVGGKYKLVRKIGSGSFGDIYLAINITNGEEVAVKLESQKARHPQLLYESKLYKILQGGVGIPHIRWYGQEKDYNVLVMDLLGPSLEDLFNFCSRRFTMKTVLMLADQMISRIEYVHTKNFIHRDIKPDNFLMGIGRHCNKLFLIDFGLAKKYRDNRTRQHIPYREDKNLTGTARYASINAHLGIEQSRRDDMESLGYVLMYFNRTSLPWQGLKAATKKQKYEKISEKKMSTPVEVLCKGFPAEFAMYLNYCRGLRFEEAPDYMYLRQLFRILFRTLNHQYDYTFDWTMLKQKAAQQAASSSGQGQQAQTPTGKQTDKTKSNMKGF
Outline: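 Activity read as ADP generated (ADP-Glo luciferase luminescence, 1 h detection steps at 22 °C). Enzyme was insect-cell-expressed GST–full-length human CSNK1A1, compound-preincubated 15 min before reaction with phosphopeptide substrate and 1 μM ATP in 50 mM HEPES pH 7.5, 10 mM MgCl2.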

[2] = molecular target: T2, wild-type Epidermal Growth Factor Receptor (EGFR) (Homo sapiens, UniProt P00533); assay: WT-EGFR Kinase Assay (TR-FRET, 2 mM ATP); format: biochemical
T2 construct: a fragment of human EGFR (amino acids R669 to A1210); made in house; host or cells: Sf9 insect cells
T2 sequence (P00533 669-1210): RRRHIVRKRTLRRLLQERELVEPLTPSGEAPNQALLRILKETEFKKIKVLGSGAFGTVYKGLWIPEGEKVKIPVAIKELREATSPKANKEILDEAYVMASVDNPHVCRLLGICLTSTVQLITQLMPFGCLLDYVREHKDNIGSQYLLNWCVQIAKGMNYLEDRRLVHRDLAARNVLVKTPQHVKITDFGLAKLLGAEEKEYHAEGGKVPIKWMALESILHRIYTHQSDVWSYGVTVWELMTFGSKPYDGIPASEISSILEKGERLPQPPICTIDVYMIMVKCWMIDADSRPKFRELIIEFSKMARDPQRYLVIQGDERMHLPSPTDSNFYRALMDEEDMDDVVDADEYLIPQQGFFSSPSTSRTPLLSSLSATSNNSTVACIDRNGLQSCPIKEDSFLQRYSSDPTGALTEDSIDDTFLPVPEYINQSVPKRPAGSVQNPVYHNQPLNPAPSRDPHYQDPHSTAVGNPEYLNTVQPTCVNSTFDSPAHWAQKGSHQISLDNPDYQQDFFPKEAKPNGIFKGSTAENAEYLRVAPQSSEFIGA
Outline: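 GST-fused human EGFR fragment (R669-A1210) from Sf9 cells, typically 7.6 pg/μL, pre-incubated with compound 15 min at 22° C in Hepes pH 7.0 buffer with MgCl2, DTT and vanadate; biotinylated peptide substrate. After EDTA stop, phosphopeptide detected by TR-FRET (anti-phosphotyrosine Tb-cryptate/streptavidin-XL665), 665/620 nm emission ratio.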

[3] = EGFR Wildtyp 2 mM ATP IC50 [mol/l] (median), Table 4
[4] = read-out: EGFR Wildtyp 2 mM ATP IC50 [mol/l] (median), Table 4

SMILES	IC50 [1] [nM]	IC50 [2, 3]	IC50 [2, 4] [nM]
O=C(Nc1cc(-c2[nH]c3c(N4CCOCC4)cc(F)nc3c2-c2ccccn2)ccn1)C(CC(F)F)c1ccc(F)cc1 (racemic) [Example 69, (2RS)-4,4-difluoro-N-{4-[5-fluoro-7-(morpholin-4-yl)-3-(pyridin-2-yl)-1H-pyrrolo[3,2-b]pyridin-2-yl]pyridin-2-yl}-2-(4-fluorophenyl)butanamide]	10.4	> 20000 nM	
O=C(Nc1cc(-c2[nH]c3c(O[C@H]4CCOC4)cc(F)nc3c2-c2ccccn2)ccn1)C(CC(F)F)c1ccc(F)cc1 (single isomer, unassigned) [Example 54, (2R or S)-4,4-difluoro-N-{4-[5-fluoro-7-{[(3S)-oxolan-3-yl]oxy}-3-(pyridin-2-yl)-1H-pyrrolo[3,2-b]pyridin-2-yl]pyridin-2-yl}-2-(4-fluorophenyl)butanamide]	4.22	> 20000 nM	
O=C(Nc1cc(-c2[nH]c3ccc(Cl)nc3c2-c2ccccn2)ccn1)C(CC(F)F)c1ccc(F)cc1 (racemic) [Example 70, (2RS)—N-{4-[5-chloro-3-(pyridin-2-yl)-1H-pyrrolo[3,2-b]pyridin-2-yl]pyridin-2-yl}-4,4-difluoro-2-(4-fluorophenyl)butanamide]	5.43	> 20000 nM	
O=C(Nc1cc(-c2[nH]c3cc(Cl)cnc3c2-c2ccccn2)ccn1)C(CC(F)F)c1ccc(F)cc1 (single isomer, unassigned) [Example 88, (+)—N-{4-[6-chloro-3-(pyridin-2-yl)-1H-pyrrolo[3,2-b]pyridin-2-yl]pyridin-2-yl}-4,4-difluoro-2-(4-fluorophenyl)butanamide]	4.72	> 20000 nM	
O=C(Nc1cc(-c2[nH]c3c(O[C@H]4CCOC4)cc(F)nc3c2-c2ccccn2)ccn1)C(CC(F)F)c1ccc(F)cc1 (mixture of isomers) [Example 53, (2RS)-4,4-difluoro-N-{4-[5-fluoro-7-{[(3S)-oxolan-3-yl]oxy}-3-(pyridin-2-yl)-1H-pyrrolo[3,2-b]pyridin-2-yl]pyridin-2-yl}-2-(4-fluorophenyl)butanamide]	6	> 20000 nM	
COc1cnc2c(-c3ccccn3)c(-c3ccnc(NC(=O)C(CC(F)F)c4ccc(F)cc4)c3)[nH]c2c1 (single isomer, unassigned) [Example 83, 4,4-difluoro-2-(4-fluorophenyl)-N-{4-[6-methoxy-3-(pyridin-2-yl)-1H-pyrrolo[3,2-b]pyridin-2-yl]pyridin-2-yl}butanamide]	9.86		> 20000
O=C(Nc1cc(-c2[nH]c3ccc(F)nc3c2-c2ccccn2)ccn1)C(CC(F)F)c1ccc(F)cc1 (racemic) [Example 1, 4,4-difluoro-2-(4-fluorophenyl)-N-{4-[5-fluoro-3-(pyridin-2-yl)-1H-pyrrolo[3,2-b]pyridin-2-yl]pyridin-2-yl}butanamide]	10.1	> 20000 nM	
Cc1cnc2c(-c3ccccn3)c(-c3ccnc(NC(=O)C(CC(F)F)c4ccc(F)cc4)c3)[nH]c2n1 (single isomer, unassigned; (+)) [Example 86, (+)-4,4-difluoro-2-(4-fluorophenyl)-N-{4-[3-methyl-7-(pyridin-2-yl)-5H-pyrrolo[2,3-b]pyrazin-6-yl]pyridin-2-yl}butanamide]	2.89	> 20000 nM	
O=C(Nc1cc(-c2[nH]c3ccc(F)nc3c2-c2ccccn2)ccn1)[C@@H](CC(F)F)c1ccc(F)cc1 (single isomer, unassigned) [Example 2]	1.36	18400 nM and > 20000 nM	
O=C(Nc1cc(-c2[nH]c3c(OC[C@H]4COCCO4)cc(F)nc3c2-c2ccccn2)ccn1)C(CC(F)F)c1ccc(F)cc1 (single isomer, unassigned) [Example 52, (2R or S)—N-{4-[7-{[(2R)-1,4-dioxan-2-yl]methoxy}-5-fluoro-3-(pyridin-2-yl)-1H-pyrrolo[3,2-b]pyridin-2-yl]pyridin-2-yl}-4,4-difluoro-2-(4-fluorophenyl)butanamide]	17.2		> 20000
O=C(Nc1cc(-c2[nH]c3ccnnc3c2-c2ccccn2)ccn1)C(CC(F)F)c1ccc(F)cc1 (single isomer, unassigned) [Example 66, (2R or 2S)-4,4-difluoro-2-(4-fluorophenyl)-N-{4-[7-(pyridin-2-yl)-5H-pyrrolo[3,2-c]pyridazin-6-yl]pyridin-2-yl}butanamide]	2.43	> 20000 nM	
O=C(Nc1cc(-c2[nH]c3ncc(F)nc3c2-c2ccccn2)ccn1)C(CC(F)F)c1ccc(F)cc1 (racemic) [Example 62, (2RS)-4,4-difluoro-2-(4-fluorophenyl)-N-{4-[2-fluoro-7-(pyridin-2-yl)-5H-pyrrolo[2,3-b]pyrazin-6-yl]pyridin-2-yl}butanamide]	3.92	> 20000 nM	
O=C(Nc1cc(-c2[nH]c3c(O[C@H]4CCOC4)ncnc3c2-c2ccccn2)ccn1)C(CC(F)F)c1ccc(F)cc1 (single isomer, unassigned) [Example 74, (2R or S)-4,4-difluoro-2-(4-fluorophenyl)-N-{4-[4-{[(3S)-oxolan-3-yl]oxy}-7-(pyridin-2-yl)-5H-pyrrolo[3,2-d]pyrimidin-6-yl]pyridin-2-yl}butanamide]	35.8		> 20000
O=C(Nc1cc(-c2[nH]c3cc(Cl)nnc3c2-c2ccccn2)ccn1)C(CC(F)F)c1ccc(F)cc1 (racemic) [Example 68, (2RS)—N-{4-[3-chloro-7-(pyridin-2-yl)-5H-pyrrolo[3,2-c]pyridazin-6-yl]pyridin-2-yl}-4,4-difluoro-2-(4-fluorophenyl)butanamide]	6.93	> 20000 nM	
O=C(Nc1cc(-c2[nH]c3c(O[C@H]4CCOC4)ncnc3c2-c2ccccn2)ccn1)C(CC(F)F)c1ccc(F)cc1 (single isomer, unassigned) [Example 73, (2R or S)-4,4-difluoro-2-(4-fluorophenyl)-N-{4-[4-{[(3S)-oxolan-3-yl]oxy}-7-(pyridin-2-yl)-5H-pyrrolo[3,2-d]pyrimidin-6-yl]pyridin-2-yl}butanamide]	4.16	> 20000 nM	
O=C(Nc1cc(-c2[nH]c3cc(F)cnc3c2-c2ccccn2)ccn1)C(CO)c1ccc(F)cc1 (racemic) [Example 71, (2RS)—N-(4-(6-fluoro-3-(pyridin-2-yl)-1H-pyrrolo[3,2-b]pyridin-2-yl)pyridin-2-yl)-2-(4-fluorophenyl)-3-hydroxypropanamide]	8.21	> 20000 nM	
O=C(Nc1cc(-c2[nH]c3c(OC[C@H]4COCCO4)cc(F)nc3c2-c2ccccn2)ccn1)C(CC(F)F)c1ccc(F)cc1 (single isomer, unassigned) [Example 51, (2R or S)—N-{4-[7-{[(2R)-1,4-dioxan-2-yl]methoxy}-5-fluoro-3-(pyridin-2-yl)-1H-pyrrolo[3,2-b]pyridin-2-yl]pyridin-2-yl}-4,4-difluoro-2-(4-fluorophenyl)butanamide]	4.65	> 20000 nM	
Cc1ccnc2c(-c3ccccn3)c(-c3ccnc(NC(=O)C(CC(F)F)c4ccc(F)cc4)c3)[nH]c12 (stereo not shown) [Example 84, 4,4-difluoro-2-(4-fluorophenyl)-N-{4-[7-methyl-3-(pyridin-2-yl)-1H-pyrrolo[3,2-b]pyridin-2-yl]pyridin-2-yl}butanamide]	4.77	> 20000 nM	
O=C(Nc1cc(-c2[nH]c3c(O[C@H]4CCOC4)ncnc3c2-c2ccccn2)ccn1)C(CC(F)F)c1ccc(F)cc1 (mixture of isomers) [Example 72, (2RS)-4,4-difluoro-2-(4-fluorophenyl)-N-{4-[4-{[(3S)-oxolan-3-yl]oxy}-7-(pyridin-2-yl)-5H-pyrrolo[3,2-d]pyrimidin-6-yl]pyridin-2-yl}butanamide]	7.1	> 20000 nM	
O=C(Nc1cc(-c2[nH]c3c(OC[C@@H]4COCCO4)cc(F)nc3c2-c2ccccn2)ccn1)C(CC(F)F)c1ccc(F)cc1 (mixture of isomers) [Example 57, (2RS)—N-(4-{7-[(2S)-1,4-dioxan-2-ylmethoxy]-5-fluoro-3-(pyridin-2-yl)-1H-pyrrolo[3,2-b]pyridin-2-yl}pyridin-2-yl)-4,4-difluoro-2-(4-fluorophenyl)butanamide]	7.89	> 20000 nM	
O=C(Nc1cc(-c2[nH]c3ncc(F)nc3c2-c2ccccn2)ccn1)C(CC(F)F)c1ccc(F)cc1 (single isomer, unassigned) [Example 63, (2R or S)-4,4-difluoro-2-(4-fluorophenyl)-N-{4-[2-fluoro-7-(pyridin-2-yl)-5H-pyrrolo[2,3-b]pyrazin-6-yl]pyridin-2-yl}butanamide]	1.48	> 20000 nM	
O=C(Nc1cc(-c2[nH]c3cc(Cl)cnc3c2-c2ccccn2)ccn1)C(CC(F)F)c1ccc(F)cc1 (single isomer, unassigned) [Example 89, (−)—N-{4-[6-chloro-3-(pyridin-2-yl)-1H-pyrrolo[3,2-b]pyridin-2-yl]pyridin-2-yl}-4,4-difluoro-2-(4-fluorophenyl)butanamide]	89		> 20000
O=C(Nc1cc(-c2[nH]c3ccnnc3c2-c2ccccn2)ccn1)C(CC(F)F)c1ccc(F)cc1 (racemic) [Example 65, (2RS)-4,4-difluoro-2-(4-fluorophenyl)-N-{4-[7-(pyridin-2-yl)-5H-pyrrolo[3,2-c]pyridazin-6-yl]pyridin-2-yl}butanamide]	2.75	> 20000 nM	
